The nature of this assay: Comparative clinical study: bone mineral density by dual-energy X-ray absorptiometry at vertebrae (L2-L4) and femoral neck. Type of assay: in vivo, postmenopausal women. Conditions: 48 months; for increase in bone mineral density in the vertebrae (mean percentage change) / increase in bone mineral density in the femoral neck: all subjects; for increase in bone mineral density in the femoral neck (percentage change) / increase in bone mineral density in the vertebrae (mean change from baseline): osteopenic/osteoporotic subjects; for mean change from baseline in BMD in vertebrae: subjects with normal BMD at baseline. The source says: The subjects used in the study were 419 postmenopausal women, aged 45 to 65 years. Eligible women had to be at least 3 years postmenopausal with normal gynecological findings, an intact uterus and a body mass index of 30 or less. Major medical exclusion criteria included endometrial hyperplasia and pathological mammography findings, prior hormone-dependent malignancies, severe thyroid diseases, and other criteria typical for HRT studies. Excessive smokers and alcohol abusers were excluded. Otherwise the women were not required to change their daily diet or other lifestyle habits for the study period.
Subjects were randomly assigned to six treatment groups to receive one tablet daily containing one of the following dose combinations: 1 mg or 2 mg of estradiolvalerate (E2V) combined to 2.5 mg or 5 mg of medroxyprogestrone acetate (MPA) (Indivina®, Orion Corporation, Espoo, Finland).
Groups changing from 1 mg E2V to 2 mg E2V irrespective of the MPA (Group I and II) were pooled together. Groups receiving 1 mg of E2V throughout the study irrespective of the MPA dose (Group V and VI) were pooled together. Also groups receiving 2 mg of E2V throughout the study irrespective of the MPA dose (Group III and IV) were pooled together. Pooling was considered justified since MPA is not expected to affect the response of estrogen on bone mineral density (BMD).
The bone mineral densities at the vertebrae and the hip were measured using dual-energy X-ray absorptiometry (DPX) at baseline, 6-, 12-, 24, 36- and 48-month follow-up visits, and at premature discontinuation. The BMD from the hip was measured by three separate measurements at the femur neck, Ward's triangle, major trochanter and BMD from the vertebrae was measured at L2-L4. In addition, the area and bone mineral content (BMC) of vertebrae L2-L4 were determined.
Results were further analysed to compare the effect varying dosages on BMD in groups that had either normal, osteopenic or osteoporotic BMD value at baseline. Subjects were classified as osteopenic if the BMD was 0.90 to 1.08 g/cm^2 in vertebrae (L2-L4) and 0.68 to 0.86 g/cm^2 in femoral neck (corresponds to T score between −1 and −2.5 in Finnish population). BMD was regarded as normal if the values were above 1.08 g/cm^2 in vertebrae and above 0.86 g/cm^2 in femoral neck. Values below 0.90 g/cm^2 in vertebrae and below 0.68 /cm^2 in femoral neck were considered as osteoporotic.

The mark [1] stands for this setting: daily 1 mg E2V first 6 months then 2 mg E2V.

Where “and” joins values, the source holds several entries; their conditions need not be identical. Equal values may be shown once.

In the case of `CCCCC(=O)O[C@H]1CC[C@H]2[C@@H]3CCc4cc(O)ccc4[C@H]3CC[C@]12C` [E2V, estradiol valerate], the “increase in bone mineral density in the vertebrae (mean percentage change)” value reads like this: (daily 1 mg E2V first 6 months then 2 mg E2V (Groups I+II pooled, with MPA)) 8.9%; (daily 1 mg E2V whole term (Groups V+VI pooled, with MPA)) 6.2%; (daily 2 mg E2V whole term (Groups III+IV pooled, with MPA)) 7.4%. Besides, the “increase in bone mineral density in the femoral neck” value was 4.2% and 4.3% under setting [1]; 2.9% (daily 1 mg E2V whole term); 2.9% (daily 2 mg E2V whole term). Moreover, the “increase in bone mineral density in the femoral neck (percentage change)” value by setting is: under setting [1], 6.4%; (daily 1 mg E2V whole term) 3.8%; (daily 2 mg E2V whole term) 3.5%. In addition, the “increase in bone mineral density in the vertebrae (mean change from baseline)” value runs as follows: under setting [1], 9.4%; (daily 1 mg E2V whole term) 7.7%; (daily 2 mg E2V whole term) 7.3%. Further, the “mean change from baseline in BMD in vertebrae” value was 8.3% under setting [1], 4.7% (daily 1 mg E2V whole term) and 7.5% (daily 2 mg E2V whole term).

(Values after patent publication US6846496B1, “Treatment of osteoporosis” (Orion Corporation, priority 1999, dated 2005).)
